# Experimental data from PubChem BioAssay (NCI).
# Values joined by “and” are separate entries in the source; they are usually repeats but may differ in a detail not shown here. Identical values can stand only once.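 Grown in 96-well plates, cells were treated for 48 hours with each compound at five concentrations. Insufficient inhibition: endpoint recorded as highest concentration tested. GI50 = concentration required for 50% inhibition of growth. The concentration for full growth arrest is given as TGI.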
# How the values were obtained:
# Assay in all cases: NCI tumour cell line growth inhibition, 48 h
# RPMI-8226 leukemia = system: RPMI-8226 leukemia
# SNB-75 CNS = system: SNB-75 CNS
# ACHN renal = system: ACHN renal
# LOX IMVI melanoma = system: LOX IMVI melanoma
# OVCAR-5 ovarian = system: OVCAR-5 ovarian
# SF-295 CNS = system: SF-295 CNS
# SR leukemia = system: SR leukemia
# NCI-H226 lung = system: NCI-H226 lung
# A498 renal = system: A498 renal
# HCT-116 colon = system: HCT-116 colon
Compound,GI50 (RPMI-8226 leukemia) [µM],TGI (RPMI-8226 leukemia),GI50 (SNB-75 CNS) [µM],TGI (SNB-75 CNS),GI50 (ACHN renal) [µM],TGI (ACHN renal),GI50 (LOX IMVI melanoma) [µM],TGI (LOX IMVI melanoma),GI50 (OVCAR-5 ovarian),TGI (OVCAR-5 ovarian),GI50 (SF-295 CNS),TGI (SF-295 CNS),GI50 (SR leukemia) [µM],TGI (SR leukemia),GI50 (NCI-H226 lung) [µM],TGI (NCI-H226 lung),GI50 (A498 renal) [µM],TGI (A498 renal),GI50 (HCT-116 colon) [µM],TGI (HCT-116 colon)
ClCc1ccccc1CSc1ncnc2nc[nH]c12,> 60,> 60 µM,> 60,> 60 µM,> 60,> 60 µM,> 60,> 60 µM,> 60 µM,> 60 µM,> 60 µM,> 60 µM,> 60,> 60 µM,> 60,> 60 µM,54.1,> 60 µM,> 60,> 60 µM
CCCCn1/c(=N/C(=S)N(C)C)ss/c1=N\C(=S)N(C)C,–,> 100 µM,–,> 100 µM,–,> 100 µM,–,> 100 µM,–,> 100 µM,–,> 100 µM,–,> 100 µM,–,> 100 µM,–,> 100 µM,–,> 100 µM
COc1cc2c(NCCCCCCO[N+](=O)[O-])ncnc2c(OC)c1OC,–,32.2 µM,–,99.3 µM,–,> 100 µM,–,49.3 µM,–,> 92.7 µM,–,58.8 µM,–,45.1 µM,–,45.5 µM,–,52 µM,–,62.5 µM
O=[n+]1c(CBr)c(CBr)n([O-])c2ccccc21,2.73,8.39 µM,10.6,47.6 µM,1.76,3.18 µM,1.8,3.48 µM,14 µM,27.1 µM,17.2 µM,36 µM,2.82,> 100 µM,11.7,30.7 µM,41.3,> 100 µM,3.94,14.5 µM
O=C1/C(=C/c2ccccc2)CN(C(=O)Oc2ccc(Cl)cc2)C/C1=C\c1ccccc1,–,0.902 µM,–,12.6 µM,–,8.86 µM,–,2.51 µM,–,23.2 µM,–,5.79 µM,–,4.33 µM,–,16.6 µM,–,7.81 µM,–,0.593 µM
NS(=O)(=O)c1ccc(-n2nc(-c3ccc(Br)cc3)ccc2=O)cc1,> 10,> 10 µM,> 10,> 10 µM,> 10,> 10 µM,> 10,> 10 µM,> 10 µM,> 10 µM,> 10 µM,> 10 µM,8.85,> 10 µM,> 10,> 10 µM,> 10,> 10 µM,> 10,> 10 µM
CN(C)S(=O)(=O)Nc1ccccn1,–,> 100 µM,–,> 100 µM,–,> 100 µM,–,> 100 µM,–,> 100 µM,–,> 100 µM,–,> 100 µM,–,> 100 µM,–,> 100 µM,–,> 100 µM
CCN1CCN(c2nc(NCCNc3ccnc4cc(Cl)ccc34)c3ccccc3n2)CC1,1.54,4.41 µM,1.94,5.85 µM,1.93,3.89 µM,1.51,3.01 µM,2.56 µM,9.14 µM,1.33 µM,2.74 µM,0.287,0.898 µM,1.82,4.05 µM,1.68,3.35 µM,1.1,6.13 µM
OC(c1cccc(C(F)(F)F)c1)c1cnccc1NC1CCCCCC1 (configuration not stated),1.67,4.11 µM,1.77,8.25 µM,1.69,3.24 µM,1.59,2.98 µM,1.7 µM,3.76 µM,1.52 µM,3.06 µM,2.2,6.51 µM,2.76,16.6 µM,3.68,15.9 µM,1.65,3.18 µM
COc1cc2c(c(O)c1C)C(=O)C(Cl)=CC2=O,–,68.3 µM,–,31.5 µM,–,13.9 µM,–,23.8 µM,–,44.3 µM,–,34.4 µM,–,4.37 µM,–,36.5 µM,–,33.9 µM,–,22.6 µM
Fc1ccc(-c2nn(-c3ccccc3)cc2-c2nc3ccccc3o2)cc1,1.05,9.3 µM,9.89,33.4 µM,4.1,> 100 µM,2.36,12.4 µM,20.1 µM,77.2 µM,2.32 µM,8.3 µM,3.71,> 100 µM,13.6,32 µM,2.97,56.7 µM,2.5,20.7 µM
O=C1CCC(NC(=O)c2ccccc2)C(=O)N1 (configuration not stated),–,> 100 µM,–,> 100 µM,–,> 100 µM,–,> 100 µM,–,> 100 µM,–,> 100 µM,–,> 100 µM,–,> 100 µM,–,> 100 µM,–,> 100 µM
CN1CCN(Cc2ccc(NC(=O)c3cncc(C#Cc4cnc(N)c5ccccc45)c3)cc2C(F)(F)F)CC1,0.441,1.41 µM,0.443,0.877 µM,0.145,0.523 µM,0.387,0.837 µM,0.457 µM,1.11 µM,0.486 µM,0.955 µM,0.157,6.63 µM,0.393,1.13 µM,0.299,1.14 µM,0.16,0.581 µM
CN(C)c1ccc(/C=C2\C[N+](C)(C)C/C(=C\c3ccc(N(C)C)cc3)C2=O)cc1,–,28.5 µM,–,67.3 µM,–,> 100 µM,–,36.4 µM,–,96.5 µM,–,> 100 µM,–,36.6 µM,–,90.8 µM,–,> 100 µM,–,22.5 µM
CN1CCCNCCN(CCc2ccccn2)CCCN(C)CC1,–,> 70.4 µM,–,> 100 µM,–,> 100 µM,–,> 79.1 µM,–,> 100 µM,–,> 100 µM,–,57.3 µM,–,> 100 µM,–,> 100 µM,–,> 100 µM
COC(=O)c1c2c(c(C)[n+]([O-])c1C)C(=O)C=CC2=O,2.07,5.29 µM,1.72,3.12 µM,1.9,3.77 µM,1.44,3.04 µM,1.76 µM,3.23 µM,1.78 µM,3.34 µM,2.28,8.19 µM,1.42,2.98 µM,3.58,13.9 µM,0.945,7.5 µM
COc1cccc(-c2nn(-c3ccccc3)cc2-c2ccnc(NCCCNS(=O)(=O)c3cccc(F)c3)c2)c1,2.91,9.92 µM,4.57,> 100 µM,3.56,> 100 µM,4.05,> 100 µM,> 100 µM,> 100 µM,2.94 µM,> 100 µM,2.13,7.22 µM,6.75,> 100 µM,3.52,> 100 µM,3.67,> 100 µM
CCOc1ccc2nc(NC(=O)/C(CC(=O)CC(C3=C(O)c4ccccc4CC3=O)c3ccccc3)=N\O)sc2c1 (configuration not stated),–,> 100 µM,–,> 100 µM,–,> 100 µM,–,> 100 µM,–,> 100 µM,–,> 100 µM,–,> 100 µM,–,> 100 µM,–,> 100 µM,–,> 100 µM
O=c1c(Cl)c(Cl)cnn1-c1ccccc1,–,> 38.7 µM and 27 µM,–,5.71 µM and 29.7 µM,–,11.6 µM and 13.5 µM,–,3.26 µM and 4.03 µM,19.7 µM and 9.53 µM,38.8 µM and 19.8 µM,5.18 µM and 16 µM,9.7 µM and 32.3 µM,–,> 19.7 µM and 3.92 µM,–,12.9 µM and 21.4 µM,–,31.6 µM and 31.2 µM,–,3.5 µM and 6.4 µM
COc1ccccc1NC(=O)c1ccc(/C=C/C(=O)c2nccn2C)cc1,0.429,1.46 µM,0.342,1.09 µM,0.532,1.09 µM,0.278,0.605 µM,0.619 µM,1.73 µM,0.658 µM,1.76 µM,0.242,7 µM,0.588,1.69 µM,0.555,1.49 µM,0.408,0.89 µM
N#Cc1cnn2ccn(C3OC(COC(=O)c4ccccc4)C(OC(=O)c4ccccc4)C3OC(=O)c3ccccc3)c12 (configuration not stated),–,> 21.5 µM,–,21.5 µM,–,> 21.5 µM,–,> 31.6 µM,–,> 21.5 µM,–,> 21.5 µM,–,> 31.6 µM,–,> 21.5 µM,–,21.5 µM,–,> 21.5 µM
CC[n+]1ccc2c(c1)C(=O)c1nccc3c1c-2nc1ccccc13,6.49,21.7 µM,0.678,2.56 µM,1.13,> 15.5 µM,2.19,7.93 µM,6.88 µM,19.4 µM,0.634 µM,3.76 µM,0.339,12.4 µM,1.13,5.51 µM,0.874,6.13 µM,1.1,7.18 µM
Cc1c(C(=O)/C=C/c2cccc3ccccc23)[n+](=O)c2ccccc2n1[O-],–,41.8 µM,–,27.2 µM,–,29.4 µM,–,20.6 µM,–,28.5 µM,–,29.7 µM,–,38.2 µM,–,27.9 µM,–,30.8 µM,–,18.8 µM
